From patent publication US7781565B2 (priority 2006, dated 2010)

System: NCI-60 cell lines
Type: cell-based, human

Row | Substance | Cell Line with which the peptide (and its tripeptide motif) is associated | Cell Line the peptide is associated with (peptide recovered from phage library selection on this NCI-60 cell line) | Cell Line (NCI-60 cell line the peptide is associated with) | Cell Line (NCI-60 cell line the peptide and its motif are associated with)
1 | RRSSKQA | A549-Lung | – | – | –
2 | SGVSRGQ | Hop-92-Lung | – | – | –
3 | RRGLGDA | – | TK-10 Renal | – | –
4 | FRAGVSH | – | – | HCT-116 Colon | –
5 | FAWGGRG | K-562-Leukemia | – | – | –
6 | GGSGIGS | Hop-92-Lung | – | – | –
7 | RERGAVQ | CCRF-CEM Leukemia | – | – | –
8 | STEGGGL | Molt-4-Leukemia | – | – | –
9 | RRPGLRS | – | – | HT-29 Colon | –
10 | LLRPAHG | – | – | – | SK-MEL-2 Melanoma
11 | SRSGRLN | – | – | – | SK-MEL-2 Melanoma
12 | LGGSGRR | H23-Lung | – | – | –
13 | PVRGSVD | HL-60-Leukemia | – | – | –
14 | SAGSHPA | – | SN12C Renal | – | –
15 | GGLSRSN | – | – | SF-268 CNS | –
16 | RYGVGGL | – | – | HT-29 Colon | –
17 | LRGSVGR | – | – | – | SK-MEL-28 Melanoma
18 | RGSRLPA | EKVX-Lung | – | – | –
19 | HGRLAFG | – | – | – | SK-MEL-28 Melanoma
20 | LGGLGLS | – | – | – | OVCAR-5 Ovarian
21 | TYCDRAV | – | BT-549 Breast | – | –
22 | WLDASLM | SR Leukemia | – | – | –
23 | RGRLEVP | Molt-4-Leukemia | – | – | –

Row | Substance | Cell Line with which the peptide (and its tripeptide motif) is associated | Cell Line the peptide is associated with (peptide recovered from phage library selection on this NCI-60 cell line) | Cell Line (NCI-60 cell line the peptide is associated with) | Cell Line (NCI-60 cell line the peptide and its motif are associated with)
24 | EHYRLRS | – | – | HT-29 Colon | –
25 | GATGVSS | – | – | – | OVCAR-8 Ovarian
26 | GAGLGVS | – | – | – | IGROV1 Ovarian
27 | DGAGSLR | – | – | – | OVCAR-5 Ovarian
28 | PFHRRAV | – | T-47D Breast | – | –
29 | GRLSFGV | – | ACHN Renal | – | –
30 | DLRLSFP | – | – | – | UACC 257 Melanoma
31 | HGLGSGT | RPMI-8226-Leukemia | – | – | –
32 | VLRSIPS | – | – | SF-295 CNS | –
33 | VRVSLNS | – | MDA-MB-231 Breast | – | –
34 | GAGGGVG | – | MDA-MB-435-Breast | – | –
35 | ALVSSHV | – | – | – | SK-MEL-2 Melanoma
36 | LRVGXPG | – | NCI/ADR-RES Breast | – | –
37 | INRGSRE | – | – | – | SK-MEL-28 Melanoma
38 | NGRGSGW | HL-60-Leukemia | – | – | –
39 | HAAVMSL | – | – | HCT-15 Colon | –
40 | LGLRGWT | – | ACHN Renal | – | –
41 | AMRPGRL | RPMI-8226-Leukemia | – | – | –
42 | SWRPLVS | Hop-62-Lung | – | – | –
43 | LAGSRVS | – | – | – | OVCAR-4 Ovarian
44 | ASLPPRA | EKVX-Lung | – | – | –
45 | PRVSALV | – | MDA-MB-231 Breast | – | –
